Experimental data taken from the NIST ThermoML archive (doi:10.1016/j.jct.2007.11.002).

Test: xn = mol fraction of the nth substance listed
Conditions: 101 kPa, Liquid; for viscosity: Capillary tube (Ostwald / Ubbelohde) method

CN1CCOCC1 [N-methylmorpholine] + c1ccccc1
Conditions | mass density, 298.15 K [kg/m3] | mass density, 303.15 K [kg/m3] | mass density, 313.15 K [kg/m3] | mass density, 323.15 K [kg/m3] | viscosity, 298.15 K [mPa·s] | viscosity, 303.15 K [mPa·s] | viscosity, 313.15 K [mPa·s] | viscosity, 323.15 K [mPa·s]
x2 = 0.0554 | 912.69 | 907.91 | 898.27 | 879.87 | 0.847 | 0.836 | 0.811 | 0.789
x2 = 0.1167 | 911.11 | 906.07 | 896.38 | 878.41 | 0.814 | 0.805 | 0.781 | 0.761
x2 = 0.1798 | 909.39 | 904.33 | 894.47 | 876.92 | 0.783 | 0.772 | 0.746 | 0.731
x2 = 0.2477 | 907.18 | 902.35 | 892.51 | 875.44 | 0.753 | 0.741 | 0.713 | 0.695
x2 = 0.2855 | 906.2 | 901.15 | 891.26 | 874.46 | 0.737 | 0.725 | 0.695 | 0.676
x2 = 0.3422 | 904.33 | 899.41 | 889.48 | 873.1 | 0.715 | 0.7 | 0.668 | 0.647
x2 = 0.3762 | 903.31 | 898.32 | 888.33 | 872.2 | 0.704 | 0.688 | 0.654 | 0.632
x2 = 0.4244 | 901.72 | 896.71 | 886.67 | 870.91 | 0.687 | 0.671 | 0.636 | 0.613
x2 = 0.479 | 899.69 | 894.8 | 884.72 | 869.39 | 0.672 | 0.656 | 0.617 | 0.592
x2 = 0.5466 | 897 | 892.15 | 881.97 | 867.18 | 0.655 | 0.637 | 0.598 | 0.568
x2 = 0.5911 | 895.2 | 890.3 | 880.1 | 865.69 | 0.646 | 0.628 | 0.587 | 0.556
x2 = 0.6201 | 893.8 | 889.05 | 878.76 | 864.58 | 0.641 | 0.622 | 0.579 | 0.548
x2 = 0.6822 | 891 | 886.21 | 875.84 | 862.22 | 0.631 | 0.61 | 0.565 | 0.531
x2 = 0.7094 | 889.5 | 884.9 | 874.61 | 861.22 | 0.628 | 0.606 | 0.561 | 0.525
x2 = 0.7655 | 886.8 | 882.04 | 871.56 | 858.69 | 0.625 | 0.6 | 0.551 | 0.509
x2 = 0.7901 | 885.2 | 880.63 | 870.14 | 857.49 | 0.621 | 0.597 | 0.548 | 0.503
x2 = 0.8439 | 882.2 | 877.64 | 867.09 | 854.96 | 0.618 | 0.589 | 0.535 | 0.486
x2 = 0.8933 | 879.6 | 874.81 | 864.21 | 852.55 | 0.613 | 0.583 | 0.521 | 0.468
x2 = 0.9278 | 877.5 | 872.82 | 862.18 | 850.86 | 0.61 | 0.578 | 0.512 | 0.458
x2 = 0.9641 | 875.4 | 870.63 | 859.95 | 848.96 | 0.606 | 0.571 | 0.503 | 0.448
